For one assay, the target named is T1, PARP1 (Homo sapiens, UniProt P09874).
T1 construct: purchased BPS 80501
Nature of the assay: DNA trapping capability of PARP1 (HTRF). It is filed as biochemical. (In general: TR-FRET usually uses a lanthanide donor and a delayed reading to cut background.)

Another assay relates to DLD-1 BRCA2^-/-. Nature of the assay: Anti-proliferative activity (CellTiter-Glo, 7 days), DLD-1 BRCA2-/-. It is filed as cell-based, human. For orientation: ATP-based viability assays read luminescence as a measure of living cells.
The target of the next assay is T2, PARP7 (Homo sapiens, UniProt Q7Z3E1).
T2 construct: purchased BPS 80527
T2 sequence (Q7Z3E1 1-657): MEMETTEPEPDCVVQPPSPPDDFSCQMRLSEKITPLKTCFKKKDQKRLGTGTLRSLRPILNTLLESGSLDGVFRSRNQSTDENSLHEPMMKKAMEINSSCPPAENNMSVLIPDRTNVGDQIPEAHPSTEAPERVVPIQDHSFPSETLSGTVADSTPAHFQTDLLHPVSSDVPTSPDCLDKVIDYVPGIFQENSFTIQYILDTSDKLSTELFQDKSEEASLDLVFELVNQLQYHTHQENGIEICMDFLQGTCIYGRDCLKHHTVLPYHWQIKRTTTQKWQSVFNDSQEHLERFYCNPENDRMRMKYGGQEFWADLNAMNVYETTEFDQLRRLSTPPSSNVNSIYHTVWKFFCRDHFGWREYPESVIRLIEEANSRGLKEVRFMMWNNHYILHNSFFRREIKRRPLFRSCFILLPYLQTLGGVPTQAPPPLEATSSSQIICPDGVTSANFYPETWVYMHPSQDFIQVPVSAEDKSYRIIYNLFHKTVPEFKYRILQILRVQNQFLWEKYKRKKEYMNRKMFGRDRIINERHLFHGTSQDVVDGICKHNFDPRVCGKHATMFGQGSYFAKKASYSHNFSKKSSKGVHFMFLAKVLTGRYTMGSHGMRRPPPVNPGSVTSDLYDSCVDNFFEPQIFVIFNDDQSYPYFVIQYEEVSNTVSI
Nature of the assay: Inhibition of PARP7 enzyme activity (chemiluminescent assay kit). It is filed as biochemical.

Each structure is given as a SMILES string. Bounds are passed on as bounds.

T1 sequence (P09874 whole entry): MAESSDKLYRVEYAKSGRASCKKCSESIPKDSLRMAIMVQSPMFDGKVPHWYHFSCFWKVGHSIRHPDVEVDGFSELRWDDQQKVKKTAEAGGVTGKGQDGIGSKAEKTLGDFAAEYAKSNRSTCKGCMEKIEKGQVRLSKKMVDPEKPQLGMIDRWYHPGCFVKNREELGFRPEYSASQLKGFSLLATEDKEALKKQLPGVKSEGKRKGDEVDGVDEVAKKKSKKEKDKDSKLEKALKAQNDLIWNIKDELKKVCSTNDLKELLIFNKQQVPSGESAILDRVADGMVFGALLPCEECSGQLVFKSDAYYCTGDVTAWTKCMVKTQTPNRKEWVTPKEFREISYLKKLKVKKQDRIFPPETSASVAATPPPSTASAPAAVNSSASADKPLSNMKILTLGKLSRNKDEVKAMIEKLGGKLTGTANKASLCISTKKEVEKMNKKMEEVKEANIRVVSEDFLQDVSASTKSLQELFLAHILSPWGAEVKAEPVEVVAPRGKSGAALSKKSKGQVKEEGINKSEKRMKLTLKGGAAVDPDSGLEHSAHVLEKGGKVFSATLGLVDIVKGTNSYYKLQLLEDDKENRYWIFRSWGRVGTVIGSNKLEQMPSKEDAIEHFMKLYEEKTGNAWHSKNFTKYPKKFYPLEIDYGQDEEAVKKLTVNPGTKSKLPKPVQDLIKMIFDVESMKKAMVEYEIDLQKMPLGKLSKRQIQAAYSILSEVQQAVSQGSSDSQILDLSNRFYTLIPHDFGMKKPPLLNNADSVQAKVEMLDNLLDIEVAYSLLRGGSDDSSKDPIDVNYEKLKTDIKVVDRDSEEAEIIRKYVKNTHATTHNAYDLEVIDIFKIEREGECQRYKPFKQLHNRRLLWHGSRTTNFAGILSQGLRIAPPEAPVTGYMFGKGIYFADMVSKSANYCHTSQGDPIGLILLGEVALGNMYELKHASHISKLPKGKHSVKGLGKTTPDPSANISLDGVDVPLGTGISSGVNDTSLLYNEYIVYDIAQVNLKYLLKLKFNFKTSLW

Compound `[2H]C([2H])([2H])NC(=O)c1ccc(N2CCN(Cc3cnc4c(N)c(CC)c(=O)[nH]c4c3)CC2)c(F)n1` [Example 4, 5-(4-((8-Amino-7-ethyl-6-oxo-5,6-dihydro-1,5-naphthyridin-3-yl)methyl)piperazin-1-yl)-6-fluoro-N-(methyl-d3)picolinamide] displayed a half-maximal effective concentration (EC50) at PARP1 of 3.8 nM. The “BRCA2 mutation/WT selectivity fold” value in the assay with DLD-1 BRCA2^-/- (DLD-1 WT vs DLD-1 BRCA2^-/-) was >2,178 fold. Besides, the IC50 in the assay on DLD-1 BRCA2^-/- (Homo sapiens, DLD-1, 168 h, BRCA2-mutated, 7 days) is 4.59 nM; at PARP7 (enzyme activity), greater than 10000 nM. Further, the “PARP7 multiple vs PARP1” value on PARP7 (ratio relative to the PARP1 enzyme activity) is “∞”.

As usually defined, the EC50 is the concentration needed to bring the measured effect to its halfway point. High values mean a less potent agent, low ones a more potent agent. Usually IC50 stands for the midpoint of a concentration-inhibition curve.

The record behind these values is patent publication EP4620956A1, “PARP1 INHIBITORS” (Zhejiang Yangli Pharmaceutical Technology Co., Ltd., priority 2022, dated 2024).
